pIC50: −log10 of the molar value.
Key:
[1] = Rat liver microsomal metabolic stability; format: in vitro ADME; settings: rat liver microsomes
Method in brief: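 Rat liver microsomes (1 mg/mL working solution) with test compound (working solution 100 µM) were pre-incubated 5 min at 37 °C, then started with NADPH (4.0 mM working solution). Residual compound measured by LC-MS/MS over time. T1/2 taken from first-order decay, scaled to CLint and hepatic CL with fu = 1.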

[2] = test system: NCI-H358 non-small cell lung cancer cells; assay: Inhibition of NCI-H358 cell proliferation (CellTiter-Glo 3D, 7 days); format: cell-based; settings: Homo sapiens, NCI-H358, 168 h, 3D microspheres, read-out: Inhibitory activity against NCI-H358 cell proliferation (IC50)
Method in brief: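 NCI-H358 cells at 2000/well in ultra-low attachment plates grown overnight into spheroids, then exposed to 8-point 5-fold compound dilutions in RPMI-1640/10% FBS for 7 days at 37 °C. Viability by CellTiter-Glo 3D luminescence; inhibition relative to no-inhibitor and cell-free controls.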

SOS1 = biological target: T1, SOS1 (Homo sapiens, UniProt Q07889); assay: biochemical
T1 sequence (Q07889 1-1333): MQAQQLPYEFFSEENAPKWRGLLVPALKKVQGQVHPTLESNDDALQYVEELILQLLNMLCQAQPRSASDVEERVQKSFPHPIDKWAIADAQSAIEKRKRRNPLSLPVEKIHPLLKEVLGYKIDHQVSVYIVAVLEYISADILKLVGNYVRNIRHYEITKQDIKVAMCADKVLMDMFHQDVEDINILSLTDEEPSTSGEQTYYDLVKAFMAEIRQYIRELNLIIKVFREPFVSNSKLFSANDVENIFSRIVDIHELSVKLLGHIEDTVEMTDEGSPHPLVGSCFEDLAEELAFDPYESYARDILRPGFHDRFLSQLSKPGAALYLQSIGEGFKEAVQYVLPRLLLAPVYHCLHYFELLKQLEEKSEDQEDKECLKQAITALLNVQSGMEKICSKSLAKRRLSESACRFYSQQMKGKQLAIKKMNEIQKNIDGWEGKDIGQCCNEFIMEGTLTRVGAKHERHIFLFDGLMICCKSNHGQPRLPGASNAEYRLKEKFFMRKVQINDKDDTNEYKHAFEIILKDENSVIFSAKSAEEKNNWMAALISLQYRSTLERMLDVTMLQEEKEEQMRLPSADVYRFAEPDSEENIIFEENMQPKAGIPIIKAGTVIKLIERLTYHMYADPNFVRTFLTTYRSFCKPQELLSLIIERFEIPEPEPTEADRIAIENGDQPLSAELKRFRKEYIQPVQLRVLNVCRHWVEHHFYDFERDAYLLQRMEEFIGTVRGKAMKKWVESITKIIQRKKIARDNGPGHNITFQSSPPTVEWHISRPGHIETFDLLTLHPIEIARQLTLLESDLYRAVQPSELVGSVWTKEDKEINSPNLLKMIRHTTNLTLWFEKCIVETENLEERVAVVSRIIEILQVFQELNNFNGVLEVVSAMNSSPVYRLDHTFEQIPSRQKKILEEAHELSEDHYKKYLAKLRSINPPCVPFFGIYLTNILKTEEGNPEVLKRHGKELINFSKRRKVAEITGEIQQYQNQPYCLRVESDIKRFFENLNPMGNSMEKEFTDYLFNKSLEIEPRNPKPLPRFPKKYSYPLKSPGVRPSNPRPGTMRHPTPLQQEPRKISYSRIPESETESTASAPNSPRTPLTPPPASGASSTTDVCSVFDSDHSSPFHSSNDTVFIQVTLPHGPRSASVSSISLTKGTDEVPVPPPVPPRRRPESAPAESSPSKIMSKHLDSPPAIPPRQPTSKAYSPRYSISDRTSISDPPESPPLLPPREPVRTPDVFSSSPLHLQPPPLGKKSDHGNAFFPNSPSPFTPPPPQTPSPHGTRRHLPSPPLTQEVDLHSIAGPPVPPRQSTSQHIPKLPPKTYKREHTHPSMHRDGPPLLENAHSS

[3] = calculated from T1/2, fu defaulted to 1, read-out: CL(liver)

Row | SMILES | half-life at 1 µM ([1]; NADPH, 37°C) | CLint scaled at 1 µM [1, 3] | pIC50 [2] | pIC50 (SOS1) | half-life ([1]; NADPH, 37°C) | CLint scaled [1, 3]
1 | CCN1CCN(c2nnc(N[C@H](C)c3cccc(C(F)F)c3F)c3cn(N4CCOCC4)c(=O)cc23)CC1 [Example 109, (R)-4-((1-(3-(difluoromethyl)-2-fluorophenyl)ethyl)amino)-1-(4-ethylpiperazin-1-yl)-6-morpholinopyrido[3 ,4-d]pyridazin-7(6H)-one] | > 5 h | < 7.23 mL/min/kg | 7.78 | 8.38 | – | –
2 | CNc1nnc(N[C@H](C)c2cccc(C(F)(F)F)c2C)c2cn(C3CC3)c(=O)cc12 [Example 52, (R)-6-cyclopropyl-4-((1-(2-methyl-3-(trifluoromethyl)phenyl)ethyl)amino)-1-(methylamino)pyrid o[3,4-d]pyridazin-7(6H)-one] | 1.41 h | 19.2 mL/min/kg | 7.21 | 8.24 | – | –
3 | CNc1nnc(N[C@H](C)c2cccc(C(F)F)c2F)c2cn(C3(C)CC3)c(=O)cc12.O=CO [Example 9, (R)-4-((1-(3-(difluoromethyl)-2-fluorophenyl)ethyl)amino)-1-(methylamino)-6-(1-methylcyclopropyl) pyrido[3,4-d]pyridazin-7(6H)-one formate] | 4.33 h | 8.2 mL/min/kg | 7.37 | 8.35 | – | –
4 | CC(C)N1CCN(c2nnc(N[C@H](C)c3cccc(C(F)F)c3F)c3cn(C4(C)CC4)c(=O)cc23)CC1 [Example 217, (R)-4-((1-(3-(difluoromethyl)-2-fluorophenyl)ethyl)amino)-1-(4-isopropylpiperazin-1-yl)-6-(1-methylcyclopropyl) pyrido[3,4-d]pyridazin-7(6H)-one] | 4.33 h | 8.18 mL/min/kg | 7.33 | 8.34 | – | –
5 | C[C@@H](Nc1nnc(N2CCN(C)CC2)c2cc(=O)n(C3CCC3)cc12)c1cccc(C(F)F)c1F [Example 88, (R)-6-cyclobutyl-4-((1-(3-(difluoromethyl)-2-fluorophenyl)ethyl)amino)-1-(4-methylpiperazin-1-yl)pyrido[3,4-d]pyridazin-7(6H)-one] | 2.13 h | 14.4 mL/min/kg | 7.64 | 8.35 | – | –
6 | C[C@@H](Nc1nnc(N2CCN(C)CC2)c2cc(=O)n(C3(C)CC3)cc12)c1cccc(C(F)F)c1F.O=CO [Example 80, (R)-4-((1-(3-(difluoromethyl)-2-fluorophenyl)ethyl)amino)-6-(1-methylcyclopropyl)-1-(4-methylpiperazin-1-yl)pyrido[3,4-d]pyridazin-7(6H)-one formate] | 2.68 h | 12.1 mL/min/kg | 7.68 | 8.35 | – | –
7 | CCN1CCN(c2nnc(N[C@H](C)c3cccc(C(F)F)c3F)c3cn(C4(C)CC4)c(=O)cc23)CC1 [Example 216, (R)-4-((1-(3-(difluoromethyl)-2-fluorophenyl)ethyl)amino)-1-(4-ethylpiperazin-1-yl)-6-(1-methylcyclopropyl) pyrido[3,4-d]pyridazin-7(6H)-one] | 4.85 h | 7.43 mL/min/kg | 7.44 | 8.34 | – | –
8 | C[C@@H](Nc1nnc(N2CCN(C)CC2)c2cc(=O)n(C3CC3)cc12)c1cccc(C(F)F)c1F [Example 77] | – | – | 7.40 | 8.23 | > 5 h | < 7.23 mL/min/kg
9 | C[C@@H](Nc1nnc(N2CCN(C3CCCC3)CC2)c2cc(=O)n(N3CCOCC3)cc12)c1cccc(C(F)F)c1F [Example 120, (R)-4-((1-(3-(difluoromethyl)-2-fluorophenyl)ethyl)amino)-1-(4-cyclopentylpiperazin-1-yl)-6-morpholinopyrido[3 ,4-d]pyridazin-7(6H)-one] | > 5 h | < 7.23 mL/min/kg | 7.60 | 8.39 | – | –
10 | C[C@@H](Nc1nnc(N2CCN(C)CC2)c2cc(=O)n(N3CCOCC3)cc12)c1cccc(C(F)F)c1F [Example 110, (R)-4-((1-(3-(difluoromethyl)-2-fluorophenyl)ethyl)amino)-1-(4-methylpiperazin-1-yl)-6-morpholinopyrido[3 ,4-d]pyridazin-7(6H)-one] | > 5 h | < 7.23 mL/min/kg | 8.02 | 8.48 | – | –
11 | CCN1CCN(c2nnc(N[C@H](C)c3cccc(C(F)F)c3F)c3cn(C4CC(F)(F)C4)c(=O)cc23)CC1 [Example 98, (R)-6-(3,3-difluorocyclobutyl)-4-((1-(3-(difluoromethyl)-2-fluorophenyl)ethyl)amino)-1-(4-ethylpiperazin-1-yl)pyrido[3,4-d]pyridazin-7(6H)-one] | 3.12 h | 10.8 mL/min/kg | 7.42 | 8.37 | – | –
12 | CC(C)Nc1nnc(N[C@H](C)c2cccc(C(F)F)c2F)c2cn(C3(C)CC3)c(=O)cc12.O=CO [Example 12, (R)-4-((1-(3-(difluoromethyl)-2-fluorophenyl)ethyl)amino)-1-(isopropylamino)-6-(1-methylcyclopropyl) pyrido[3,4-d]pyridazin-7(6H)-one formate] | 2.5 h | 12.8 mL/min/kg | 7.44 | 8.31 | – | –
13 | C[C@@H](Nc1nnc(N2CCN(C(C)(C)C)CC2)c2cc(=O)n(C3(C)CC3)cc12)c1cccc(C(F)F)c1F.O=CO [Example 222, (R)-1-(4-(tert-butyl)piperazin-1-yl)-4-((1-(3-(difluoromethyl)-2-fluorophenyl)ethyl)amino)-6-(1-methylcyclopropyl) pyrido[3,4-d]pyridazin-7(6H)-one formate] | 3.63 h | 9.47 mL/min/kg | 7.48 | 8.30 | – | –
14 | CC(C)N1CCN(c2nnc(N[C@H](C)c3cccc(C(F)F)c3F)c3cn(N4CCOCC4)c(=O)cc23)CC1 [Example 111, (R)-4-((1-(3-(difluoromethyl)-2-fluorophenyl)ethyl)amino)-1-(4-isopropylpiperazin-1-yl)-6-morpholinopyrido[3 ,4-d]pyridazin-7(6H)-one] | > 5 h | < 7.23 mL/min/kg | 7.84 | 8.36 | – | –
15 | CCN1CCN(c2nnc(N[C@H](C)c3cccc(C(F)F)c3F)c3cn(C4CCC4)c(=O)cc23)CC1 [Example 112, (R)-6-cyclobutyl-4-((1-(3-(difluoromethyl)-2-fluorophenyl)ethyl)amino)-1-(4-ethylpiperazin-1-yl)pyrido[3,4-d]pyridazin-7(6H)-one] | 3.32 h | 10.2 mL/min/kg | 7.69 | 8.30 | – | –
16 | CNc1nnc(N[C@H](C)c2cccc(C(F)(F)F)c2C)c2cn(C3(C)CC3)c(=O)cc12 [Example 73, (R)-4-((1-(2-methyl-3-(trifluoromethyl)phenyl)ethyl)amino)-1-(methylamino)-6-(1-methylcyclopropyl) pyrido[3,4-d]pyridazin-7(6H)-one] | 1.59 h | 17.7 mL/min/kg | 7.83 | 8.36 | – | –

Reference: EP4722213A1, “NITROGEN-CONTAINING FUNCTIONAL GROUP-SUBSTITUTED PYRIDAZINOPYRIDONE DERIVATIVE AND USE THEREOF” (Sichuan Huiyu Pharmaceutical Co., Ltd., priority 2023, dated 2024)
